Test results taken from patent US10870639B2, “Pyrimidine compounds and pharmaceutical compositions for preventing or treating cancers including the same” (HANMI PHARM. CO., LTD., priority 2018, dated 2020).

Assays:
[1] = Pharmacokinetic profile in mice (p.o. and i.v.); type: in vivo; set-up: AUC: concentration or dose not given beside the values; conditions: mouse, plasma; for AUC: LC-MS/MS, non-compartment analysis, read-out: Area under the curve (AUC) of mice; for bioavailability: po, BA=(AUC p.o./AUC i.v.)×(Dose i.v./Dose p.o.)×100
Protocol: After test substances were formulated by using the selected solvents, they were administered orally (p.o.) and intravenously (iv) once for each and a certain amount of blood was taken at a predetermined time, and plasma was isolated from the blood and a concentration analysis was performed thereon by LC-MS/MS. The AUC (drug concentration and an area under the curve) was calculated according to the linear-log trapezoidal summation formula by using the non-compartment analysis of the WinNonlin program through the plasma concentration curves over time. The bioavailability (BA) was calculated by applying the calculated AUC value to the following formula. BA (%)=(AUC p.o./AUC i.v.)×(Dose i.v./Dose p.o.)×100

[2] = biological target: FLT3 ITD (Homo sapiens, UniProt P36888, ITD); test: LanthaScreen kinase binding assay, FLT3 ITD
Protocol: (§2) The inhibitory activity of some of the compounds described above against FLT3-ITD, FLT3 wild type (WT), VEGFR2 (KDR), and SYK kinase was measured.
(§3) This experiment was carried out on a 384-well plate in conditions including 50 mM HEPES pH 7.5, 0.01% BRIJ-35, 10 mM MgCl2, 1 mM EGTA, and 1% DMSO.

[3] = system: MV-4-11; test: Cell growth inhibition (MTS), MV-4-11; type: cell-based; conditions: Homo sapiens, MV4-11, 72 h, incubation three days
Protocol: (§1) The human acute myelogenous leukemia […] cell line MOLM-13 (DSMZ no. ACC 554) was incubated in RPM11640 medium supplemented with 20% heat-inactivated FBS at a temperature of 37° C. The incubated cell line was prepared in an amount of 2.0×10^4 cells/100 μL, and then plated on a 96-well plate. The RPMI1640 medium was serially diluted with the test compounds at a concentration in a range of 1 μM to 0.01 nM at a ratio of 1:10. Subsequently, incubation was performed thereon for three days. For the human acute myelogenous leukemia cell line MV-4-11 cell line (ATCC® CRL-9591™), the cells were incubated at a temperature of 37° C. in IMDM medium supplemented with 10% FBS. The incubated cell line was prepared in an amount of 2×10^4 cells/100 μL, and then plated on a 96-well plate. The IMDM medium was treated with cascade dilution of three test compounds at a concentration in a range of 1 μM to 0.01 nM at a rate of 1/10. Subsequently, incubation was performed thereon for three days. MTS test was performed to measure cell viability, and the growth inhibition (GI50) value of the cell line was calculated using GraphPad Prism software.

[4] = system: MOLM-13; test: Cell growth inhibition (MTS), MOLM-13; type: cell-based; conditions: Homo sapiens, MOLM-13, 72 h, incubation three days
Protocol: as §1

[5] = biological target: FLT3 WT (Homo sapiens (Human), UniProt P36888); test: LanthaScreen kinase binding assay, FLT3 WT; conditions: kinase tracer-236, 50 nM to 0.05 nM
Sequence of FLT3 WT (P36888 27-993): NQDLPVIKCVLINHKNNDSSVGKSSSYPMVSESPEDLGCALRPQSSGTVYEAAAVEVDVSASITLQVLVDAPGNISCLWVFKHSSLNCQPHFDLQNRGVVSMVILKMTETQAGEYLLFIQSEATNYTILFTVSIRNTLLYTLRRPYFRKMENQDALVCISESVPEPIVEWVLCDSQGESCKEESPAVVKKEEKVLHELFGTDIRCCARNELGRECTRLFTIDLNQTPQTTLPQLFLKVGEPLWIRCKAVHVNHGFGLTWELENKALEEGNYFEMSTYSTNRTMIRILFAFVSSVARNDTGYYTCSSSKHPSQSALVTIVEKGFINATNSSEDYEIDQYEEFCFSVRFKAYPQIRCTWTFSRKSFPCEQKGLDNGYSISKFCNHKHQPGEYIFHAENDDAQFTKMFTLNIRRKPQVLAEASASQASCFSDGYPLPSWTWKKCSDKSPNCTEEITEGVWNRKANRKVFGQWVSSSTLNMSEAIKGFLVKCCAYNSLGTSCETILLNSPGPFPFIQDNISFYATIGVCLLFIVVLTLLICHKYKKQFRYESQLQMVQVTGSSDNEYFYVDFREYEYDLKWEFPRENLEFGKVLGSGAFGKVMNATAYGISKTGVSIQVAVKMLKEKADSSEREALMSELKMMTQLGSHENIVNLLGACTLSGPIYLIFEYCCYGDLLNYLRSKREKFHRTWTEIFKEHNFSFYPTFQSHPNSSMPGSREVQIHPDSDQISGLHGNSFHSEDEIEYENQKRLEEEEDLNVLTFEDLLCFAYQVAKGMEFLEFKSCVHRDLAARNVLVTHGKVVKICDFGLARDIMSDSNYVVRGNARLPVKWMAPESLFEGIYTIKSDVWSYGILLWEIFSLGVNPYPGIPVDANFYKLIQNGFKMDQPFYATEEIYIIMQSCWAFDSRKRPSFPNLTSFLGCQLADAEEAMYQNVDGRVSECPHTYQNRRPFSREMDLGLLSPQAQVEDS
Protocol: as §2, §3

Sequence of FLT3 ITD (P36888 whole entry, looked up, change not shown): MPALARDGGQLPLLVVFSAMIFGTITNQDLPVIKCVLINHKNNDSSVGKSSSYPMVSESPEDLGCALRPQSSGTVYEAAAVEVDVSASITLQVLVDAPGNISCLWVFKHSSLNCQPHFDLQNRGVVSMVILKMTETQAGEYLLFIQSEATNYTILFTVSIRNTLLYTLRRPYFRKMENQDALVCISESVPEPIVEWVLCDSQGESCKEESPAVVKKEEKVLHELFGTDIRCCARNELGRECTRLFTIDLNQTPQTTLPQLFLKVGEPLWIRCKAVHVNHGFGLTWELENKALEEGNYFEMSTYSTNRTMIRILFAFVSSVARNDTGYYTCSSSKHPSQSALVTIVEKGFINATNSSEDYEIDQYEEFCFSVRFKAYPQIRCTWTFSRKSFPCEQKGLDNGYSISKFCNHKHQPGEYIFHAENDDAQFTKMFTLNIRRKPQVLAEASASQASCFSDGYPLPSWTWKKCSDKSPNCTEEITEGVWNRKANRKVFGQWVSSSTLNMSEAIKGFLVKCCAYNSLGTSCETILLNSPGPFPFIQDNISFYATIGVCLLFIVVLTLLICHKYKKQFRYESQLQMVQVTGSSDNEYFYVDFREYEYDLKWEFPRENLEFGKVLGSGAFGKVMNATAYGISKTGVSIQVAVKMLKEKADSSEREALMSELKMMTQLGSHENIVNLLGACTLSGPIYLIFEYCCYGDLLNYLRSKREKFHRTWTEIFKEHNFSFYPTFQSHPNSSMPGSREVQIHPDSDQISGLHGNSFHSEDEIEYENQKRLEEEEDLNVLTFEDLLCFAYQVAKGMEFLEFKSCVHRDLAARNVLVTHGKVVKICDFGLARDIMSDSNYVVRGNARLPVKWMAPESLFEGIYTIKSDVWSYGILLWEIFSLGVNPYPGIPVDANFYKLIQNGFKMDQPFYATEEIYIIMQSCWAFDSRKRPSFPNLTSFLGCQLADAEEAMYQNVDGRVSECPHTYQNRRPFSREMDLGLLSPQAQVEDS

| SMILES | AUC [1] | bioavailability [1] | GI50 [3] | GI50 [4] | IC50 [2] | IC50 [5] |
| --- | --- | --- | --- | --- | --- | --- |
| CN(C)C1CCN(c2cc(Nc3ncc(Cl)c(-c4c[nH]c5ccccc45)n3)cc(C3CC3)c2)CC1 [Control Compound 4] | 518 ng·h/mL | 27% | – | – | – | – |
| C[C@@H]1CN(Cc2cc(Nc3ncc(Cl)c(-c4c[nH]c5cc(Cl)ccc45)n3)cc(C3CC3)c2)C[C@H](C)N1 [Example 2, 5-chloro-4-(6-chloro-1H-indole-3-yl)-N-(3-cyclopropyl-5-(((3R,5S)-3,5-dimethylpiperazine-1-yl)methyl)phenyl)pyrimidine-2-amine] | – | – | 3.5 nM | 6.2 nM | 1.5 nM | 1.9 nM |
| C[C@@H]1CN(Cc2cc(Nc3ncc(Cl)c(-c4c[nH]c5ccccc45)n3)cc(C3CC3)c2)CCN1 [Example 6, (R)-5-chloro-N-(3-cyclopropyl-5-((3-methylpiperazine-1-yl)methyl)phenyl)-4-(1H-indole-3-yl)pyrimidine-2-amine] | – | – | – | – | 1.8 nM | – |
| Cc1ccc2c(-c3nc(Nc4cc(CN5C[C@@H](C)N[C@@H](C)C5)cc(C5CC5)c4)ncc3F)c[nH]c2c1 [Example 12, N-(3-cyclopropyl-5-(((3R,5S)-3,5-dimethylpiperazine-1-yl)methyl)phenyl)-5-fluoro-4-(6-methyl-1H-indole-3-yl)pyrimidine-2-amine] | – | – | 11 nM | 21 nM | 2.5 nM | 1.2 nM |
| C[C@@H]1CN(Cc2cc(Nc3ncc(Cl)c(-c4c[nH]c5cc(CO)ccc45)n3)cc(C3CC3)c2)C[C@H](C)N1 [Example 16, (3-(5-chloro-2-((3-cyclopropyl-5-(((3R,5S)-3,5-dimethylpiperazine-1-yl)methyl)phenyl)amino)pyrimidine-4-yl)-1H-indole-6-yl)methanol] | – | – | – | – | 0.5 nM | 0.4 nM |
| COc1cc2c(-c3nc(Nc4cc(CN5C[C@@H](C)N[C@@H](C)C5)cc(C5CC5)c4)ncc3Cl)c[nH]c2cc1C [Example 17, 5-chloro-N-(3-cyclopropyl-5-(((3R,5S)-3,5-dimethylpiperazine-1-yl)methyl)phenyl)-4-(5-methoxy-6-methyl-1H-indole-3-yl)pyrimidine-2-amine] | – | – | – | – | > 50 nM | 9.5 nM |
| Cc1cc2[nH]cc(-c3nc(Nc4cc(CN5C[C@@H](C)N[C@@H](C)C5)cc(C5CC5)c4)ncc3Cl)c2cc1O [Example 18, 3-(5-chloro-2-((3-cyclopropyl-5-(((3R,5S)-3,5-dimethylpiperazine-1-yl)methyl)phenyl)amino)pyrimidine-4-yl)-6-methyl-1H-indole-5-ol] | – | – | – | – | 13 nM | 3.7 nM |
| Cc1ccc2c(c1)NC(=O)C2c1nc(Nc2cc(CN3C[C@@H](C)N[C@@H](C)C3)cc(C3CC3)c2)ncc1Cl (stereo partly drawn) [Example 19, 3-(5-chloro-2-((3-cyclopropyl-5-(((3R,5S)-3,5-dimethylpiperazine-1-yl)methyl)phenyl)amino)pyrimidine-4-yl)-6-methylindoline-2-one] | – | – | – | – | > 50 nM | – |
| Cc1ccc2c(-c3nc(Nc4cc(CN5C[C@@H](C)N[C@@H](C)C5)cc(C5CC5)c4)ncc3Cl)c[nH]c2c1O [Example 22, 3-(5-chloro-2-((3-cyclopropyl-5-(((3R,5S)-3,5-dimethylpiperazine-1-yl)methyl)phenyl)amino)pyrimidine-4-yl)-6-methyl-1H-indole-7-ol] | – | – | – | – | 2.4 nM | – |
| Cc1ccc2c(-c3nc(Nc4cc(C5CC5)cc(CN5C[C@@H](C)N[C@@H](C)C5)c4O)ncc3Cl)c[nH]c2c1 [Example 23, 2-((5-chloro-4-(6-methyl-1H-indole-3-yl)pyrimidine-2-yl)amino)-4-cyclopropyl-6-(((3R,5S)-3,5-dimethylpiperazine-1-yl)methyl)phenol] | – | – | – | – | > 50 nM | 0.4 nM |
| Cc1ccc2c(-c3nc(Nc4cc(CN5C[C@H](CO)N[C@H](C)C5)cc(C5CC5)c4)ncc3Cl)c[nH]c2c1 [Example 26, ((2R,6R)-4-(3-((5-chloro-4-(6-methyl-1H-indole-3-yl)pyrimidine-2-yl)amino)-5-cyclopropylbenzyl)-6-methylpiperazine-2-yl)methanol] | – | – | 22 nM | 6.1 nM | 2.3 nM | 1.5 nM |
| Cc1ccc2c(-c3nc(Nc4cc(CN5C[C@@H](C)N[C@H](C)C5)cc(C5CC5)c4)ncc3Cl)c[nH]c2c1 [Example 28, 5-chloro-N-(3-cyclopropyl-5-(((3R,5R)-3,5-dimethylpiperazine-1-yl)methyl)phenyl)-4-(6-methyl-1H-indole-3-yl)pyrimidine-2-amine] | – | – | < 0.01 nM | 0.8 nM | – | – |
| Cc1ccc2c(-c3nc(Nc4cc(CN5C[C@@H](C)N(O)[C@@H](C)C5)cc(C5CC5)c4)ncc3Cl)c[nH]c2c1 [Example 31, (2R,6S)-4-(3-((5-chloro-4-(6-methyl-1H-indole-3-yl)pyrimidine-2-yl)amino)-5-cyclopropylbenzyl)-2,6-dimethylpiperazine-1-ol] | – | – | – | – | 6.9 nM | – |

Now from value to compound, other results behind:

| AUC [1] | bioavailability [1] | GI50 [3] | GI50 [4] | SMILES | IC50 [2] | IC50 [5] |
| --- | --- | --- | --- | --- | --- | --- |
| 95.5 ng·h/mL | 6.6% | – | – | COc1cc(CN2CCN(CCO)CC2)cc(Nc2ncc(Cl)c(-c3c[nH]c4ccccc34)n2)c1 [Control Compound 1] | – | – |
| 110 ng·h/mL | 6.7% | – | – | OCCN1CCN(Cc2cccc(Nc3ncc(Cl)c(-c4c[nH]c5ccccc45)n3)c2)CC1 [Control Compound 2] | – | – |
| 2270 ng·h/mL | 27.3% | – | – | Cc1ccc2c(-c3nc(Nc4cc(C5CC5)cc(N5CCC(N(C)C)CC5)c4)ncc3Cl)c[nH]c2c1 [Control Compound 3] | – | – |
| 1220 ng·h/mL | 25.6% | – | – | Cc1ccc2c(-c3nc(Nc4cc(CN5CCN(C(C)(C)CO)CC5)cc(C5CC5)c4)ncc3Cl)c[nH]c2c1 [Control Compound 5] | – | – |
| – | – | 0.3 nM | 0.4 nM | C[C@@H]1CN(Cc2cc(Nc3ncc(Cl)c(-c4c[nH]c5cc(F)ccc45)n3)cc(C3CC3)c2)C[C@H](C)N1CCO [Example 3, 2-((2R,6S)-4-(3-((5-chloro-4-(6-fluoro-1H-indole-3-yl)pyrimidine-2-yl)amino)-5-cyclopropylbenzyl)-2,6-dimethylpiperazine-1-yl)ethane-1-ol] | 8.1 nM | – |
| 184 ng·h/mL | 7.4% | 1.7 nM | 0.7 nM | C[C@@H]1CN(Cc2cc(Nc3ncc(Cl)c(-c4c[nH]c5ccccc45)n3)cc(C3CC3)c2)C[C@H](C)N1CCO [Example 4, 2-((2R,6S)-4-(3-((5-chloro-4-(1H-indole-3-yl)pyrimidine-2-yl)amino)-5-cyclopropylbenzyl)-2,6-dimethylpiperazine-1-yl)ethane-1-ol] | 3.6 nM | – |
| – | – | 2.8 nM | 5 nM | Cc1ccc2c(-c3nc(Nc4cc(CN5CC(C)NC(C)C5)cc(C5CC5)c4)ncc3Cl)c[nH]c2c1 (stereo not shown) [Example 10, 5-chloro-N-(3-cyclopropyl-5-((3,5-dimethylpiperazine-1-yl)methyl)phenyl)-4-(6-methyl-1H-indole-3-yl)pyrimidine-2-amine] | – | – |
| – | – | 2.1 nM | 2.6 nM | Cc1cnc(Nc2cc(CN3C[C@@H](C)N[C@@H](C)C3)cc(C3CC3)c2)nc1-c1c[nH]c2ccccc12 [Example 13, N-(3-cyclopropyl-5-(((3R,5S)-3,5-dimethylpiperazine-1-yl)methyl)phenyl)-4-(1H-indole-3-yl)-5-methylpyrimidine-2-amine] | 8.7 nM | – |
